Reference: patent US6645918B1, “N-([1,2,4]triazoloazinyl)thiophenesulfonamide compounds and their use as herbicides” (Dow AgroSciences LLC, priority 2000, dated 2003)

Key:
Format in all cases: in vivo
[1] = system: velvetleaf (Abutilion theophrasti); assay: Preemergence herbicidal activity, velvetleaf; conditions: soil spray, visual after 3 weeks, 0 no injury, 100 complete kill or no germination
How it was run: (§1)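 Compounds in acetone/DMSO were diluted in water with 0.1% Tween 155 and sprayed onto soil of seeded pots, highest rate 4.48 kg/ha. Pots were kept in a greenhouse with ~15 h photoperiod at about 23-29 °C day and 22-28 °C night. Injury was scored visually after 3 weeks against untreated controls, 0 (none) to 100% (kill/no germination).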

[2] = system: pigweed (Amaranthus retroflexus); assay: Postemergence herbicidal activity, pigweed; conditions: foliar spray, visual after 2 weeks, 0 no injury, 100 complete kill
How it was run: (§2)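 Greenhouse plants at first–second true leaf stage sprayed with compound in acetone/water/isopropanol/DMSO/crop oil/Triton X-155 carrier (1 ppm ≈ 1 g/ha). Sub-irrigated; visual injury versus untreated controls scored after 2 weeks on a 0–100% scale (100 = complete kill).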

[3] = system: viola (Viola tricolor); assay: Postemergence herbicidal activity, viola; conditions: foliar spray, visual after 2 weeks, 0 no injury, 100 complete kill
How it was run: as §2

[4] = system: Rox orange sorghum (Sorghum bicolor); assay: Postemergence herbicidal activity, Rox orange sorghum; conditions: foliar spray, visual after 2 weeks, 0 no injury, 100 complete kill
How it was run: as §2

[5] = system: barnyardgrass (Echinochloa crus-galli); assay: Preemergence herbicidal activity, barnyardgrass; conditions: soil spray, visual after 3 weeks, 0 no injury, 100 complete kill or no germination
How it was run: as §1

[6] = system: crabgrass (Digitaria sanguinalis); assay: Preemergence herbicidal activity, crabgrass; conditions: soil spray, visual after 3 weeks, 0 no injury, 100 complete kill or no germination
How it was run: as §1

[7] = system: wild buckwheat (Polygonum convolvulus); assay: Postemergence herbicidal activity, wild buckwheat; conditions: foliar spray, visual after 2 weeks, 0 no injury, 100 complete kill
Procedure: Seeds of the desired test plant species were planted in Grace-Sierra MetroMix® 306 planting mixture, which typically has a pH of 6.0 to 6.8 and an organic matter content of about 30 percent, in plastic pots with a surface area of 64 square centimeters. When required to ensure good germination and healthy plants, a fungicide treatment and/or other chemical or physical treatment was applied. The plants were grown for 7-21 days in a greenhouse with an approximately 15 hr photoperiod which was maintained at about 23-29° C. during the day and 22-28° C. during the night. Nutrients and water were added on a regular basis and supplemental lighting was provided with overhead metal halide 1000 Watt lamps as necessary. The plants were employed for testing when they reached the first or second true leaf stage. A weighed amount of each test compound, determined by the highest rate to be tested, was placed in a 20 mL glass vial and was dissolved in 4 mL of a 97:3 v/v (volume/volume) mixture of acetone and dimethyl sulfoxide to obtain concentrated stock solutions. […] The concentrated stock solutions obtained were diluted with an aqueous mixture containing acetone, water, iso-propyl alcohol, dimethyl sulfoxide, Atplus 411F crop oil concentrate, and Triton X-155 surfactant (methylenebisdiamyl phenoxy polyethoxy ethanol) in a 48.5:39:10:1.5:1.0:0.02 v/v ratio to obtain spray solutions of known concentration. The solutions containing the highest concentration to be tested were prepared by diluting 2 mL aliquots of the stock solution with 13 mL of the mixture and lower concentrations were prepared by dilution of appropriate smaller portions of the stock solution. Approximately 1.5 mL aliquots of each solution of known concentration were sprayed evenly onto each of the test plant pots using a DeVilbiss atomizer driven by compressed air pressure of 2 to 4 psi (140 to 280 kilopascals) to obtain thorough coverage of each plant. Control plants were sprayed in the same manner with the aqueous mixture. In this test an application rate of 1 ppm results in the application of approximately 1 g/ha. The treated plants and control plants were placed in a greenhouse as described above and watered by sub-irrigation to prevent wash-off of the test compounds. After 2 weeks the condition of the test plants as compared with that of the untreated plants was determined visually and scored on a scale of 0 to 100 percent where 0 corresponds to no injury and 100 corresponds to complete kill.

[8] = system: Rox orange sorghum (Sorghum bicolor); assay: Preemergence herbicidal activity, Rox orange sorghum; conditions: soil spray, visual after 3 weeks, 0 no injury, 100 complete kill or no germination
How it was run: as §1

[9] = system: morningglory (Ipomoea hederacea); assay: Preemergence herbicidal activity, morningglory; conditions: soil spray, visual after 3 weeks, 0 no injury, 100 complete kill or no germination
How it was run: as §1

[10] = system: cocklebur (Xanthium strumarium); assay: Preemergence herbicidal activity, cocklebur; conditions: soil spray, visual after 3 weeks, 0 no injury, 100 complete kill or no germination
How it was run: as §1

[11] = system: cocklebur (Xanthium strumarium); assay: Postemergence herbicidal activity, cocklebur; conditions: foliar spray, visual after 2 weeks, 0 no injury, 100 complete kill
How it was run: as §2

[12] = system: wild poinsettia (Euphorbia heterophylla); assay: Preemergence herbicidal activity, wild poinsettia; conditions: soil spray, visual after 3 weeks, 0 no injury, 100 complete kill or no germination
How it was run: as §1

[13] = system: lambsquarters (Chenopodium album); assay: Preemergence herbicidal activity, lambsquarters; conditions: soil spray, visual after 3 weeks, 0 no injury, 100 complete kill or no germination
How it was run: as §1

[14] = system: lambsquarters (Chenopodium album); assay: Postemergence herbicidal activity, lambsquarters; conditions: foliar spray, visual after 2 weeks, 0 no injury, 100 complete kill
How it was run: as §2

[15] = system: chickweed (Stellaria media); assay: Postemergence herbicidal activity, chickweed; conditions: foliar spray, visual after 2 weeks, 0 no injury, 100 complete kill
How it was run: as §2

[16] = system: morningglory (Ipomoea hederacea); assay: Postemergence herbicidal activity, morningglory; conditions: foliar spray, visual after 2 weeks, 0 no injury, 100 complete kill
How it was run: as §2

[17] = system: blackgrass (Alopecurus myosuroides); assay: Preemergence herbicidal activity, blackgrass; conditions: soil spray, visual after 3 weeks, 0 no injury, 100 complete kill or no germination
How it was run: as §1

[18] = system: blackgrass (Alopecurus myosuroides); assay: Postemergence herbicidal activity, blackgrass; conditions: foliar spray, visual after 2 weeks, 0 no injury, 100 complete kill
How it was run: as §2

[19] = system: wild oats (Avena fatua); assay: Postemergence herbicidal activity, wild oats; conditions: foliar spray, visual after 2 weeks, 0 no injury, 100 complete kill
How it was run: as §2

[20] = system: wild oats (Avena fatua); assay: Preemergence herbicidal activity, wild oats; conditions: soil spray, visual after 3 weeks, 0 no injury, 100 complete kill or no germination
How it was run: as §1

[21] = system: pigweed (Amaranthus retroflexus); assay: Preemergence herbicidal activity, pigweed; conditions: soil spray, visual after 3 weeks, 0 no injury, 100 complete kill or no germination
How it was run: as §1

[22] = system: giant foxtail (Setaria faberi); assay: Preemergence herbicidal activity, giant foxtail; conditions: soil spray, visual after 3 weeks, 0 no injury, 100 complete kill or no germination
How it was run: as §1

[23] = system: giant foxtail (Setaria faberi); assay: Postemergence herbicidal activity, giant foxtail; conditions: foliar spray, visual after 2 weeks, 0 no injury, 100 complete kill
How it was run: as §2

[24] = system: velvetleaf (Abutilion theophrasti); assay: Postemergence herbicidal activity, velvetleaf; conditions: foliar spray, visual after 2 weeks, 0 no injury, 100 complete kill
How it was run: as §2

With `COc1cc(Cl)sc1S(=O)(=O)Nc1nc2c(OC)cnc(OC)n2n1` [Compound 3] the “ABUTH preemergence injury score 0-100” value ([1]; 35 g/Ha) was 50%, the “AMARE postemergence injury score 0-100” value ([2]; 31 ppm) was 100% and the “VIOTR postemergence injury score 0-100” value ([3]; 31 ppm) was 80%. For the same molecule, the “SORBI postemergence injury score 0-100” value ([4]; 31 ppm) was 90%, the “ECHCG preemergence injury score 0-100” value ([5]; 35 g/Ha) was 70% and the “DIGSA preemergence injury score 0-100” value ([6]; 35 g/Ha) was 95%. For the same molecule, the “POLCO postemergence injury score 0-100” value ([7]; 31 ppm) was 85%, the “SORBI preemergence injury score 0-100” value ([8]; 35 g/Ha) was 90% and the “IPOHE preemergence injury score 0-100” value ([9]; 35 g/Ha) was 60%. For the same molecule, the “XANST preemergence injury score 0-100” value ([10]; 35 g/Ha) was 70%, the “XANST postemergence injury score 0-100” value ([11]; 31 ppm) was 100% and the “EPHHL preemergence injury score 0-100” value ([12]; 35 g/Ha) was 70%. For the same molecule, the “CHEAL preemergence injury score 0-100” value ([13]; 35 g/Ha) was 95%, the “CHEAL postemergence injury score 0-100” value ([14]; 31 ppm) was 95% and the “STEME postemergence injury score 0-100” value ([15]; 31 ppm) was 70%. For the same molecule, the “IPOHE postemergence injury score 0-100” value ([16]; 31 ppm) was 70%, the “ALOMY preemergence injury score 0-100” value ([17]; 35 g/Ha) was 80% and the “ALOMY postemergence injury score 0-100” value ([18]; 31 ppm) was 70%. For the same molecule, the “AVEFA postemergence injury score 0-100” value ([19]; 31 ppm) was 80%, the “AVEFA preemergence injury score 0-100” value ([20]; 35 g/Ha) was 70% and the “AMARE preemergence injury score 0-100” value ([21]; 35 g/Ha) was 95%. For the same molecule, the “SETFA preemergence injury score 0-100” value ([22]; 35 g/Ha) was 90%, the “SETFA postemergence injury score 0-100” value ([23]; 31 ppm) was 85% and the “ABUTH postemergence injury score 0-100” value ([24]; 31 ppm) was 70%.
In the case of `COc1csc(Cl)c1S(=O)(=O)Nc1nc2c(Cl)cnc(OC)n2n1` [Compound 20], the “ABUTH preemergence injury score 0-100” value ([1]; 17.5 g/Ha) was 80%, the “AMARE postemergence injury score 0-100” value ([2]; 31.3 ppm) was 95% and the “VIOTR postemergence injury score 0-100” value ([3]; 31.3 ppm) was 90%. The “SORBI postemergence injury score 0-100” value ([4]; 31.3 ppm) was 85%, the “ECHCG preemergence injury score 0-100” value ([5]; 17.5 g/Ha) was 95% and the “DIGSA preemergence injury score 0-100” value ([6]; 17.5 g/Ha) was 85%. For the same molecule, the “POLCO postemergence injury score 0-100” value ([7]; 31.3 ppm) was 90%, the “SORBI preemergence injury score 0-100” value ([8]; 17.5 g/Ha) was 90% and the “IPOHE preemergence injury score 0-100” value ([9]; 17.5 g/Ha) was 70%. The “XANST preemergence injury score 0-100” value ([10]; 17.5 g/Ha) was 60%, the “XANST postemergence injury score 0-100” value ([11]; 31.3 ppm) was 100% and the “EPHHL preemergence injury score 0-100” value ([12]; 17.5 g/Ha) was 50%. For the same molecule, the “CHEAL preemergence injury score 0-100” value ([13]; 17.5 g/Ha) was 70%, the “CHEAL postemergence injury score 0-100” value ([14]; 31.3 ppm) was 75% and the “STEME postemergence injury score 0-100” value ([15]; 31.3 ppm) was 85%. The “IPOHE postemergence injury score 0-100” value ([16]; 31.3 ppm) was 75%, the “ALOMY preemergence injury score 0-100” value ([17]; 17.5 g/Ha) was 90% and the “ALOMY postemergence injury score 0-100” value ([18]; 31.3 ppm) was 30%. The “AVEFA postemergence injury score 0-100” value ([19]; 31.3 ppm) was 70%, the “AVEFA preemergence injury score 0-100” value ([20]; 17.5 g/Ha) was 90% and the “AMARE preemergence injury score 0-100” value ([21]; 17.5 g/Ha) was 80%. For the same molecule, the “SETFA preemergence injury score 0-100” value ([22]; 17.5 g/Ha) was 50%, the “SETFA postemergence injury score 0-100” value ([23]; 31.3 ppm) was 50% and the “ABUTH postemergence injury score 0-100” value ([24]; 31.3 ppm) was 85%.
